Measured values reported in patent publication US20220365069A1, “ATP-BASED CELL SORTING AND HYPERPROLIFERATIVE CANCER STEM CELLS” (LUNELLA BIOTECH, INC., priority 2019, published 2022).

How the values were obtained:
ATP-low MCF7 cells = experiment: 3D-mammosphere assay, drug sensitivity of ATP-low MCF7 sub-population; type: cell-based, human
Source text: (§1) MCF7 cells in the ATP-high subpopulation show a multi-drug resistance phenotype. The 3D-mammosphere assay was used to explore the differential sensitivity of ATP-high and ATP-low MCF7 cell sub-populations to four different classes of drugs, using as a functional readout of drug-resistance. The drug classes include Tamoxifen, doxycycline, DPI, and Palbociclib.
(§2) Flow Cytometry after Vital Staining with ATP-Red 1: Human breast cancer cell lines were first grown either as a 2D-monolayer or as 3D-spheroids. Then the cells were collected and dissociated into a single-cell suspension, prior to analysis or sorting by flow-cytometry with a SONY SH800 Cell Sorter. Briefly, ATP-high and ATP-low sub-populations of cells were isolated after vital staining with the probe ATP-Red 1. The ATP-high and ATP-low cell sub-populations were selected by gating, within the ATP-Red 1 signal. Unless otherwise stated, cells with the lowest (bottom 5% or 10%) fluorescent signal, or the highest (top 5% or 10%) fluorescent signal, were collected as ATP-low and ATP-high, respectively. The cells outside the gates were discarded during sorting, due to the gate settings. However, such settings are often required to ensure high-purity during sorting. Data were analyzed with FlowJo 10.1 software.
(§3) 3D Anchorage Independent Growth Assay: A single cell suspension was prepared using enzymatic (lx Trypsin-EDTA, Sigma Aldrich, cat. #T3924), and manual disaggregation (25 gauge needle). Five thousand cells were plated with in mammosphere medium (DMEM-F12/B27/20ng/m1 EGF/PenStrep), under non-adherent conditions, in six wells plates coated with 2-hydroxyethylmethacrylate (poly-HEMA, Sigma, cat. #P3932). Cells were grown for 5 days and maintained in a humidified incubator at 37° C. at an atmospheric pressure in 5% (v/v) carbon dioxide/air. After 5 days, 3D spheroids with a diameter greater than 50 μm were counted using a microscope, fitted with a graticule eye-piece, and the percentage of cells which formed spheroids was calculated and normalized to one (1=100% MFE; mammosphere forming efficiency). Mammosphere assays were performed in triplicate and repeated three times independently.

ATP-high MCF7 cells = experiment: 3D-mammosphere assay, drug sensitivity of ATP-high MCF7 sub-population; type: cell-based, human
Source text: as §1, §2
as §3, with “Mammosphere assays were performed in triplicate and repeated three times independently.” left out

Structure (SMILES): c1ccc2c(c1)[I+]c1ccccc1-2 [DPI, diphenyleneiodonium]
- reduction of 3D-mammosphere formation (ATP-low MCF7 cells; ATP-low cells, 100 nM): > 90%
- reduction of 3D-mammosphere formation (ATP-high MCF7 cells; ATP-high cells, 100 nM): ~55%

Structure (SMILES): CC(=O)c1c(C)c2cnc(Nc3ccc(N4CCNCC4)cn3)nc2n(C2CCCC2)c1=O [Palbociclib]
- reduction of 3D-mammosphere formation (ATP-low MCF7 cells; ATP-low cells, 12.5 nM): ~75%
- reduction of 3D spheroid formation (ATP-high MCF7 cells; ATP-high cells, 12.5 nM): -50%

Structure (SMILES): CC/C(=C(\c1ccccc1)c1ccc(OCCN(C)C)cc1)c1ccccc1 [Tamoxifen]
- reduction of 3D-mammosphere formation (ATP-low MCF7 cells; ATP-low MCF7 cells (bottom 5%), 1 μM): ~40%
- reduction of 3D-mammosphere formation (ATP-low MCF7 cells; ATP-low MCF7 cells (bottom 5%), 5 μM): > 90%
- 3D-mammosphere formation, of the vehicle-treated control levels (ATP-high MCF7 cells; ATP-high MCF7 cells (top 5%), 5 μM): > 80%
